Laboratory results: patent US20240270715A1, “INHIBITORS OF TRANSGLUTAMINASES” (ZEDIRA GMBH, priority 2021, published 2024)

How the values were obtained:
[1] = target: T1, recombinant human transglutaminase 2 (Homo sapiens, UniProt P21980); assay: Transglutaminase assay: incorporation of dansylcadaverine into dimethylcasein (DCC-assay); assay type: biochemical; details: recombinant human TG2 10 nM, dansylcadaverine/dimethylcasein; read-out: IC50 TG2
T1 sequence (P21980 1-687): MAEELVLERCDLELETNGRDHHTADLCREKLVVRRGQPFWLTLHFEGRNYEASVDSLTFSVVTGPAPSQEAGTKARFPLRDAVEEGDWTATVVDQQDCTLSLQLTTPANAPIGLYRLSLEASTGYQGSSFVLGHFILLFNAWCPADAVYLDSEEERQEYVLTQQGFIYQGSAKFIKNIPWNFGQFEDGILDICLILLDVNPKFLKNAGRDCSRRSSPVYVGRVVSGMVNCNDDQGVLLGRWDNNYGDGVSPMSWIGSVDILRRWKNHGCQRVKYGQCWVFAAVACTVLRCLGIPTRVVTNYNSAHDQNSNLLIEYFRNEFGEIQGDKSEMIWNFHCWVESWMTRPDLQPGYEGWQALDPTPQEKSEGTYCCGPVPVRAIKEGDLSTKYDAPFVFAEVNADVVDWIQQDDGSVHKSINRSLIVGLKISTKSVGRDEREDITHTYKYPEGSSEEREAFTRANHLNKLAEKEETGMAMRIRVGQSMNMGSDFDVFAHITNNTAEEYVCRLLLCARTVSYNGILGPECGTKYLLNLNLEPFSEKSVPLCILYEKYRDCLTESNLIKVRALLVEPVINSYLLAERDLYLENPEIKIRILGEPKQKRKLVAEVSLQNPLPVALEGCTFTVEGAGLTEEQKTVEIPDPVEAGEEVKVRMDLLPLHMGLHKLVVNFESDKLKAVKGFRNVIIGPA
Protocol: To illustrate the advantage of branched alkyl moieties over aromatic moieties, we refer to reference compounds Ref. 2 (ZED1227, U.S. Pat. No. 9,434,763 B2) and Ref. 3 (A8, ZED1047). Inhibition data were determined using the classical fluorescent transamidation assay (dansylcadaverine incorporation into methylated casein, DCC-assay) as described [Büchold, C.; Hils, M.; Gerlach, U.; Weber, J.; Pelzer, C.; Heil, A.; Aeschlimann, D.; Pasternack, R. Features of ZED1227: The First-In-Class Tissue Transglutaminase Inhibitor Undergoing Clinical Evaluation for the Treatment of Celiac Disease. Cells 2022, 11, 1667. https://doi.org/10.3390/cells11101667]. Casein is one of the best known high molecular weight (24 kDa) protein substrates for transglutaminases. Please note, the IC50 value of Ref. 3 (A8) published in U.S. Pat. No. 9,434,763 B2 cannot be compared to the present data, relying on a fluorogenic isopeptidase assay.
To this extent, inhibition data were determined using the classical fluorescent transamidation assay (dansylcadaverine incorporation into methylated casein, DCC-assay) as described in Büchold et al. [Büchold, C.; Hils, M.; Gerlach, U.; Weber, J.; Pelzer, C.; Heil, A.; Aeschlimann, D.; Pasternack, R. Features of ZED1227: The First-In-Class Tissue Transglutaminase Inhibitor Undergoing Clinical Evaluation for the Treatment of Celiac Disease. Cells 2022, 11, 1667. https://doi.org/10.3390/cells11101667]. Casein is one of the best known high molecular weight (24 kDa) protein substrates for transglutaminases. Inhibition data of the inventive compounds was compared with inhibition of compounds disclosed in U.S. Pat. No. 9,434,763 B2, particularly, compound A8, which is denoted herein as Reference 3. It is noteworthy that the IC50 values of compounds A8 published in U.S. Pat. No. 9,434,763 B2 and E16 from U.S. Pat. No. 11,072,634 B2 cannot be compared to the present data, relying on a fluorogenic isopeptidase assay.
For the determination of potency of inhibitors against tissue transglutaminase, the incorporation of dansylcadaverine into dimethylcasein (Zedira product T036, Lorand et al., Anal Biochem, 1971, 44:221-31) was measured using recombinant human transglutaminase 2 (Zedira Product T022).
The tissue transglutaminase is diluted in buffer (50 mM Tris-HCl, 7.5 mM CaCl2, 150 mM NaCl, pH=7.4). The final concentration of TG2 in the assay is 10 nM.
A 10 mM inhibitor stock solution is prepared in DMSO, and from this a serial 1:2-fold dilution series is prepared also in DMSO. Each of the initial dilutions is subsequently diluted 1:50-fold with buffer (50 mM Tris-HCl, 7.5 mM CaCl2, 150 mM NaCl, pH=7.4) to yield the final working dilutions containing 2% (v/v) DMSO. 15 μl of inhibitor working dilution are added per well of a 96 well microtiter plate. As control, 15 μl of a 2% (v/v) DMSO solution prepared using the buffer mentioned above are added per well.
Immediately before starting the assay, 600 μl transglutaminase working solution are added to 11.4 ml assay buffer (50 mM Tris-HCl, 10 mM CaCl2, 10 mM glutathione, 2.5% glycerol, 16.7 μM dansylcadaverine, 4 μM N,N-dimethylcasein, 200 mM NaCl, pH=8.0). 285 μl of this reaction mix are added per well containing the inhibitor.
Increase in fluorescence is measured using λex=330 nm and λemG=500 nm at […] for 30 min. A slope of the increase in fluorescence between 20 and 30 min is calculated for determination of the IC50 value (inhibitor concentration at which 50% of the initial activity is blocked).
Analysis of enzymatic activity is performed by calculation of the slope of an increase in fluorescence intensity. IC50 values are calculated by plotting the enzymatic activity (as percentage from control containing 2% DMSO instead of inhibitor) against the inhibitor concentration. IC50 is defined as the inhibitor concentration blocking 50% of initial enzyme activity.

[2] = Log D by shake flask method (octanol / PBS pH 7.4, HPLC); assay type: physicochemical; details: octanol / PBS pH 7.4, shake flask; read-out: logD
Protocol: In order to classify the inventive compounds according to their lipophilicity, Log D values (distribution coefficient) were determined by means of the well-established shake flask method, measuring the partition of a compound between an octanol and phosphate-buffered saline (PBS, pH 7.4) by HPLC.
Compounds with a moderate lipophilicity (Log D values from 0 to 3) are usually advantaged for oral absorption, being in balance between solubility and permeability. However, sophisticated formulation of a compound might improve oral bioavailability for highly lipophilic compounds.

[3] = Caco-2 permeability assay (CacoReady kit); assay type: in vitro ADME; details: human
Protocol: Permeability coefficients (Papp values) were obtained from Caco-2 barrier studies predicting oral/intestinal bioavailability of the tested compounds. The assays were performed by using CacoReady™ ready-to-use kits from ReadyCell according to the manufacturers protocol.

Row | IC50 [1] | logD [2] | Papp [3] | SMILES
1 | 600 to 3500 nM | < 1 | < 1 ×10⁻⁶ cm/s | CCNC(=O)C(=O)CC[C@H](NC(=O)c1noc(C)n1)C(=O)Nc1cccn(CC(=O)NC23CC(C2)C3)c1=O [Compound I-116, (S)-N1-(1-(2-(bicyclo[1.1.1]pentan-1-ylamino)-2-oxoethyl)-2-oxo-1,2-dihydropyridin-3-yl)-N6-ethyl-2-(5-methyl-1,2,4-oxadiazole-3-carboxamido)-5-oxohexanediamide]
2 | 600 to 3500 nM | < 1 | < 1 ×10⁻⁶ cm/s | CCNC(=O)C(=O)CC[C@H](NC(=O)c1ccc2c(c1)CC(=O)NC2)C(=O)Nc1cccn(CC(=O)NC2(C(=O)O)C3CC4CC2CC(C(F)(F)F)(C4)C3)c1=O (stereo partly drawn) [Compound I-105, (S)-N1-ethyl-N6-(1-(2-(2-carboxy-2-amino-5-(trifluoromethyl)adamantane)-2-oxoethyl)-2-oxo-1,2-dihydropyridin-3-yl)-2-oxo-5-(3-oxo-1,2,3,4-tetrahydroisoquinoline-6-carboxamido)hexanediamide]
3 | 600 to 3500 nM | 3 to 5 | < 1 ×10⁻⁶ cm/s | CCNC(=O)C(=O)CC[C@H](NC(=O)c1ccc2cnccc2n1)C(=O)Nc1cccn(CC(=O)NC2C3CC4CC2CC(CC)(C4)C3)c1=O (stereo partly drawn) [Compound I-106, (S)-N1-ethyl-N6-(1-(2-(5-ethyladamantane-2-amino)-2-oxoethyl)-2-oxo-1,2-dihydropyridin-3-yl)-5-(1,6-naphthyridine-2-carboxamido)-2-oxohexanediamide]
4 | 150 to 600 nM | < 1 | < 1 ×10⁻⁶ cm/s | CCNC(=O)C(=O)CC[C@H](NC(=O)c1cncnc1C)C(=O)Nc1cccn(CC(=O)NC2C3CC4CC2CC(C(=O)O)(C4)C3)c1=O (stereo partly drawn) [Compound I-92, (S)-N1-ethyl-N6-(1-(2-(5-carboxy-2-aminoadamantane)-2-oxoethyl)-2-oxo-1,2-dihydropyridin-3-yl)-5-(4-methylpyrimidine-5-carboxamido)-2-oxohexanediamide]
5 | < 150 nM | < 1 | < 1 ×10⁻⁶ cm/s | CCNC(=O)C(=O)CC[C@H](NC(=O)c1coc(C(C)=O)n1)C(=O)Nc1cccn(CC(=O)NC23CC(C2)C3)c1=O [Compound I-89, (S)-2-(2-acetyloxazole-4-carboxamido)-N1-(1-(2-(bicyclo[1.1.1]pentan-1-ylamino)-2-oxoethyl)-2-oxo-1,2-dihydropyridin-3-yl)-N6-ethyl-5-oxohexanediamide]

The remaining lines, values behind:

Row | SMILES | IC50 [1] | logD [2] | Papp [3]
6 | CCNC(=O)C(=O)CC[C@H](NC(=O)c1sc(-c2ccccc2)nc1C)C(=O)Nc1cccn(CC(=O)NC2C3CC4CC(C3)CC2C4)c1=O (stereo partly drawn) [Compound I-42, (S)-N1-ethyl-N6-(1-(2-(2-adamantylamino)-2-oxoethyl)-2-oxo-1,2-dihydropyridin-3-yl)-5-(4-methyl-2-phenylthiazole-5-carboxamido)-2-oxohexanediamide] | 150 to 600 nM | 3 to 5 | 1 to 10 ×10⁻⁶ cm/s
7 | CCNC(=O)C(=O)CC[C@H](NC(=O)c1c(C)nc2sccn12)C(=O)Nc1cccn(CC(=O)N(C)C2C3CC4CC(C3)CC2C4)c1=O (stereo partly drawn) [Compound I-67, (S)-N1-ethyl-N6-(1-(2-(2-adamantyl(methyl)amino)-2-oxoethyl)-2-oxo-1,2-dihydropyridin-3-yl)-5-(6-methylimidazo[2,1-b]thiazole-5-carboxamido)-2-oxohexanediamide] | 600 to 3500 nM | 3 to 5 | < 1 ×10⁻⁶ cm/s
8 | CCNC(=O)C(=O)CC[C@H](NC(=O)c1snnc1C1CC1)C(=O)Nc1cccn(CC23CC4CC(CC(O)(C4)C2)C3)c1=O [Compound I-82, (S)-N1-(1-((3-hydroxy-1-adamantyl)methyl)-2-oxo-1,2-dihydropyridin-3-yl)-2-(4-cyclopropyl-1,2,3-thiadiazole-5-carboxamido)-N6-ethyl-5-oxohexanediamide] | 150 to 600 nM | < 1 | < 1 ×10⁻⁶ cm/s
9 | CCNC(=O)C(=O)CC[C@H](NC(=O)c1c(C)ncn1C)C(=O)Nc1cccn(CC(=O)NC23CC4CC(C)(CC(C)(C4)C2)C3)c1=O [Compound I-21, (S)-2-(1,4-dimethyl-1H-imidazole-5-carboxamido)-N6-ethyl-N1-(1-(2-(3,5-dimethyladamantane-1-amino)-2-oxoethyl)-2-oxo-1,2-dihydropyridin-3-yl)-5-oxohexanediamide] | 600 to 3500 nM | 1 to 3 | < 1 ×10⁻⁶ cm/s
10 | CCNC(=O)C(=O)CC[C@H](NC(=O)c1cnccn1)C(=O)Nc1cccn(CC(=O)NC2C3CC4CC2CC(O)(C4)C3)c1=O (stereo partly drawn) [Compound I-58, (S)-N1-ethyl-N6-(1-(2-(5-hydroxyadamantane-2-amino)-2-oxoethyl)-2-oxo-1,2-dihydropyridin-3-yl)-2-oxo-5-(pyrazine-2-carboxamido)hexanediamide] | 150 to 600 nM | < 1 | < 1 ×10⁻⁶ cm/s
11 | CCNC(=O)C(=O)CC[C@H](NC(=O)C1CN2CCC1CC2)C(=O)Nc1cccn(CC(=O)NC2(C#N)C3CC4CC(C3)CC2C4)c1=O (stereo partly drawn) [Compound I-63, (S)-N1-ethyl-N6-(1-(2-(2-carbonitrileadamantane-2-amino)-2-oxoethyl)-2-oxo-1,2-dihydropyridin-3-yl)-2-oxo-5-((3S,4R)-quinuclidine-3-carboxamido)hexanediamide] | 150 to 600 nM | < 1 | < 1 ×10⁻⁶ cm/s
12 | CCNC(=O)C(=O)CC[C@H](NC(=O)c1cc(C(=O)OC)cc([N+](=O)[O-])c1)C(=O)Nc1cccn(CC(=O)NC2(C(=O)OC)C3CC4CC(C3)CC2C4)c1=O (stereo partly drawn) [Compound I-64, (S)-methyl 3-(6-(ethylamino)-1-(1-(2-(methyl 2-aminoadamantane-2-carboxylate)-2-oxoethyl)-2-oxo-1,2-dihydropyridin-3-ylamino)-1,5,6-trioxohexan-2-ylcarbamoyl)-5-nitrobenzoate] | < 150 nM | 1 to 3 | 1 to 10 ×10⁻⁶ cm/s
